Measured values as given in US6943191B1, “Disubstituted lavendustin A analogs and pharmaceutical composition comprising the analogs” (The United States of America as represented by the …, priority 1998, dated 2005).

What was measured:
[1] = system: panel of approximately 60 different human tumor cell lines; assay: National Cancer Institute drug screen, mean-graph parameters; format: cell-based; settings: mean over cell line panel, two days exposure
Procedure, shortened: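 About 60 human tumour cell lines in eight histology subpanels were exposed continuously to a concentration range for two days. GI50 (50% growth decrease versus untreated control), TGI (cell number equal to start) and LC50 (50% reduction versus start) were derived per cell line and summarised as mean-graph negative log10 values.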

[2] = system: minimum of 12 human cancer cell lines; assay: Hollow fiber assay in mice, point score; format: in vivo; settings: for Hollow Fiber Assay IP score: first number of cell; for Hollow Fiber Assay SC score: second number of cell
Procedure: (§1) Compounds satisfying Formulas 1 and 2 also have been tested for in vivo activity in the hollow fiber assay. See Example 12 below for the procedure used for the in vivo tests. Each compound tested was tested against a minimum of 12 human cancer cell lines. Data is reported as % T/C (i.e., the […]) for each of the 2 compound doses against each of the cell lines with separate values calculated for the intraperitoneal and subcutaneous samples, with a target value for % T/C being about 50 or less.
(§2) Compounds were selected for further in vivo testing in standard subcutaneous xenograft models on the basis of several hollow fiber assay criteria. These criteria include: (1) a % T/C of 50 or less in 10 of the 48 possible test combinations (12 cell lines×2 sites×2 compound doses); (2) activity at a distance (intrapentoneal drug/subcutaneous culture) in a minimum of 4 of the 24 possible combinations; and/or (3) a net cell kill of 1 or more cell lines in either implant site. To simplify evaluation, a point system has been adopted which allows rapid assessment of a compound's activity. A value of 2 is assigned for each compound dose which results in a 50% or greater reduction in viable cell mass. The intraperitoneal and subcutaneous samples were scored separately so that criteria (1) and (2) could be evaluated. Compounds with a combined IP+SC score≧20, an SC score≧8, or a net cell kill of one or more cell lines were referred for xenograft testing. These criteria have been statistically validated by comparing the activity outcomes of greater than 80 randomly selected compounds in the hollow fiber assay and in the xenograft testing.
(§3) This example describes the method used for in vivo testing of mice. Human cancer cells were cultivated in polyvinylidene fluoride (PVDF) hollow fibers. A sample of each cancer cell line was implanted intraperitoneally and subcutaneously in mice. Each mouse received a total of 6 fibers, 3 intraperitoneally and 3 subcutaneously, representing 3 distinct cancer cell lines. Three mice were treated with compounds made according to the present invention at each of two test doses intraperitoneally using a QD×4 treatment schedule. Vehicle controls consisted of 6 mice receiving the compound diluent only The fiber cultures were collected on the day following the last treatment. Anticancer effects were assessed by determining viable cell mass for each of the coil line using a formazan dye (MTT) conversion assay. From this, the % TIC was calculated using the average optical density of the compound-treated samples divided by the average optical density of the vehicle controls. In addition, the net increase in cell mass was determined for each sample as samples of fiber cultures were assessed for viable cell mass on the day of implantation into mice. This allowed cytostatic and cytocidal capacities of these compounds to be assessed.

NCI-H23 = assay: Hollow fiber assay in mice, NCI-H23; format: in vivo, human; settings: QD X 4, Day 4; for % T/C NCI-H23 IP: IP fibers; for % T/C NCI-H23 SC: SC fibers
Procedure: as §1, §2
as §3, with “Vehicle controls consisted of 6 mice receiving the compound diluent only The fiber cultures were collected on the day following the last treatment.” left out

MDA-MB-231 = assay: Hollow fiber assay in mice, MDA-MB-231; format: in vivo, human; settings: QD X 4, Day 4; for % T/C MDA-MB-231 IP: IP fibers; for % T/C MDA-MB-231 SC: SC fibers
Procedure: as §1, §2
as §3, with “Vehicle controls consisted of 6 mice receiving the compound diluent only The fiber cultures were collected on the day following the last treatment.” left out

SW-620 = assay: Hollow fiber assay in mice, SW-620; format: in vivo, human; settings: QD X 4, Day 4; for % T/C SW-620 IP: IP fibers; for % T/C SW-620 SC: SC fibers
Procedure: as §1, §2
as §3, with “Vehicle controls consisted of 6 mice receiving the compound diluent only The fiber cultures were collected on the day following the last treatment.” left out

OVCAR-5 = assay: Hollow fiber assay in mice, OVCAR-5; format: in vivo, human; settings: QD X 4, Day 4; for % T/C OVCAR-5 IP: IP fibers; for % T/C OVCAR-5 SC: SC fibers
Procedure: as §1, §2
as §3, with “Vehicle controls consisted of 6 mice receiving the compound diluent only The fiber cultures were collected on the day following the last treatment.” left out

MDA-MB-435 = assay: Hollow fiber assay in mice, MDA-MB-435; format: in vivo, human; settings: QD X 4, Day 4; for % T/C MDA-MB-435 IP: IP fibers; for % T/C MDA-MB-435 SC: SC fibers
Procedure: as §1, §2
as §3, with “Vehicle controls consisted of 6 mice receiving the compound diluent only The fiber cultures were collected on the day following the last treatment.” left out

SF-295 = assay: Hollow fiber assay in mice, SF-295; format: in vivo, human; settings: QD X 4, Day 4; for % T/C SF-295 IP: IP fibers; for % T/C SF-295 SC: SC fibers
Procedure: as §1, §2
as §3, with “Vehicle controls consisted of 6 mice receiving the compound diluent only The fiber cultures were collected on the day following the last treatment.” left out

NCI-H522 = assay: Hollow fiber assay in mice, NCI-H522; format: in vivo, human; settings: QD X 4, Day 4; for % T/C NCI-H522 IP: IP fibers; for % T/C NCI-H522 SC: SC fibers
Procedure: as §1, §2
as §3, with “Vehicle controls consisted of 6 mice receiving the compound diluent only The fiber cultures were collected on the day following the last treatment.” left out

U251 = assay: Hollow fiber assay in mice, U251; format: in vivo, human; settings: QD X 4, Day 4; for % T/C U251 IP: IP fibers; for % T/C U251 SC: SC fibers
Procedure: as §1, §2
as §3, with “Vehicle controls consisted of 6 mice receiving the compound diluent only The fiber cultures were collected on the day following the last treatment.” left out

[3] = Table 8, intraperitoneal fibers

COC(=O)c1ccc(CCc2cc(O)c(Br)cc2O)cc1
GI50 ([1]; Homo sapiens, 48 h, Table 10, read-out: Tumor Cell Mean log GI50 (converted)): 12.3 µM
Tumor Cell Mean log TGI ([1]; Table 10): −4.54
Hollow Fiber Assay IP score ([2]; Table 10): 0 + 0 = 0
Hollow Fiber Assay SC score ([2]; Table 10): 0 + 0 = 0
Hollow Fiber Assay Total Ip and SC Score ([2]; Table 10): 0 + 0 = 0

CC(C)OC(=O)c1ccc(CCC2=CC(=O)C(Br)=CC2=O)cc1
Tumor Cell Mean log GI50 ([1]; Table 10): −4.85
Tumor Cell Mean log TGI ([1]; Table 10): −4.48
Hollow Fiber Assay IP score ([2]; Table 10): 0 + 0 = 0
Hollow Fiber Assay SC score ([2]; Table 10): 0 + 0 = 0
Hollow Fiber Assay Total Ip and SC Score ([2]; Table 10): 0 + 0 = 0

CC(C)(C)OC(=O)c1ccc(NCc2cc(O)ccc2O)cc1 [COOC(CH3)3 / H / H, 4′-t-butylbenzoate-1′-N-2,5-dihydroxybenzylamine]
Tumor Cell Mean log GI50 ([1]; Table 8): −5.66
Tumor Cell Mean log TGI ([1]; Table 8): −5.03
Hollow Fiber Assay IP score [2, 3]: 2
Hollow Fiber Assay SC score ([2]; Table 8, subcutaneous fibers): 2
Hollow Fiber Assay Total Ip and SC Score ([2]; Table 8): 4

CC(C)C(OC(=O)c1ccc(NCC2=CC(=O)C=CC2=O)cc1)C(C)C [COOCH[CH(CH3)2]2 / H / 2,5-quinoyl]
Tumor Cell Mean log GI50 ([1]; Table 9): −5.25
Tumor Cell Mean log TGI ([1]; Table 9): −4.78
Hollow Fiber Assay IP score ([2]; Table 9, intraperitoneal fibers): 2
Hollow Fiber Assay SC score ([2]; Table 9, subcutaneous fibers): 4
Hollow Fiber Assay Total Ip and SC Score ([2]; Table 9): 6

CC(C)C(OC(=O)c1ccc(NCc2cc(O)ccc2O)cc1)C(C)C [COOCH[CH(CH3)2]2 / H / H]
Tumor Cell Mean log GI50 ([1]; Table 8): −5.91
Tumor Cell Mean log TGI ([1]; Table 8): −5.35
Hollow Fiber Assay IP score [2, 3]: 4
Hollow Fiber Assay SC score ([2]; Table 8, subcutaneous fibers): 2
Hollow Fiber Assay Total Ip and SC Score ([2]; Table 8): 6

CC(C)OC(=O)c1ccc(NCc2cc(O)ccc2O)cc1Cl [COOCH(CH3)2 / Cl / H, 5′-chloro-4′-isopropylbenzoate-1′-N-2,5-dihydroxybenzylamine]
Tumor Cell Mean log GI50 ([1]; Table 8): −5.46
Tumor Cell Mean log TGI ([1]; Table 8): −5.65
Hollow Fiber Assay IP score [2, 3]: 2
Hollow Fiber Assay SC score ([2]; Table 8, subcutaneous fibers): 0
Hollow Fiber Assay Total Ip and SC Score ([2]; Table 8): 2

O=C(OC12CC3CC(CC(C3)C1)C2)c1ccc(NCc2cc(O)ccc2O)cc1 [Compound 6, 4′-adamantylbenzoate-1′-N-2,5-dihydroxybenzylamine]
Tumor Cell Mean log GI50 ([1]; Table 8): −6.03
Tumor Cell Mean log TGI ([1]; Table 8): −5.44
Hollow Fiber Assay IP score [2, 3]: 8
Hollow Fiber Assay SC score ([2]; Table 8, subcutaneous fibers): 8
Hollow Fiber Assay Total Ip and SC Score ([2]; Table 8): 16
IP+SC score ([2]; hollow fiber assay): 16
SC score ([2]; hollow fiber assay): 8
% T/C NCI-H23 IP (NCI-H23; 33.50 mg/kg/dose IP): 100%
% T/C NCI-H23 IP (NCI-H23; 50.00 mg/kg/dose IP): >100%
% T/C NCI-H23 SC (NCI-H23; 33.50 mg/kg/dose IP): >100%
% T/C NCI-H23 SC (NCI-H23; 50.00 mg/kg/dose IP): >100%
% T/C MDA-MB-231 IP (MDA-MB-231; 33.50 mg/kg/dose IP): >100%
% T/C MDA-MB-231 IP (MDA-MB-231; 50.00 mg/kg/dose IP): >100%
% T/C MDA-MB-231 SC (MDA-MB-231; 33.50 mg/kg/dose IP): 67%
% T/C MDA-MB-231 SC (MDA-MB-231; 50.00 mg/kg/dose IP): 92%
% T/C SW-620 IP (SW-620; 33.50 mg/kg/dose IP): >100%
% T/C SW-620 IP (SW-620; 50.00 mg/kg/dose IP): >100%
% T/C SW-620 SC (SW-620; 33.50 mg/kg/dose IP): 94%
% T/C SW-620 SC (SW-620; 50.00 mg/kg/dose IP): 80%
% T/C OVCAR-5 IP (OVCAR-5; 33.50 mg/kg/dose IP): >100%
% T/C OVCAR-5 IP (OVCAR-5; 50.00 mg/kg/dose IP): 46%
% T/C OVCAR-5 SC (OVCAR-5; 33.50 mg/kg/dose IP): 87%
% T/C OVCAR-5 SC (OVCAR-5; 50.00 mg/kg/dose IP): 75%
% T/C MDA-MB-435 IP (MDA-MB-435; 33.50 mg/kg/dose IP): >100%
% T/C MDA-MB-435 IP (MDA-MB-435; 50.00 mg/kg/dose IP): 72%
% T/C MDA-MB-435 SC (MDA-MB-435; 33.50 mg/kg/dose IP): 94%
% T/C MDA-MB-435 SC (MDA-MB-435; 50.00 mg/kg/dose IP): 99%
% T/C SF-295 IP (SF-295; 33.50 mg/kg/dose IP): >100%
% T/C SF-295 IP (SF-295; 50.00 mg/kg/dose IP): 88%
% T/C SF-295 SC (SF-295; 33.50 mg/kg/dose IP): >100%
% T/C SF-295 SC (SF-295; 50.00 mg/kg/dose IP): 88%
% T/C NCI-H522 IP (NCI-H522; 33.50 mg/kg/dose IP): 94%
% T/C NCI-H522 IP (NCI-H522; 50.00 mg/kg/dose IP): 48%
% T/C NCI-H522 SC (NCI-H522; 33.50 mg/kg/dose IP): 89%
% T/C NCI-H522 SC (NCI-H522; 50.00 mg/kg/dose IP): 89%
% T/C U251 IP (U251; 33.50 mg/kg/dose IP): 100%
% T/C U251 IP (U251; 50.00 mg/kg/dose IP): >100%
% T/C U251 SC (U251; 33.50 mg/kg/dose IP): >100%
% T/C U251 SC (U251; 50.00 mg/kg/dose IP): >100%
